Assay results: the kinase profiling compilation of Christmann-Franck et al. (2016)

Legend:
Experiment in all cases: KINOMEscan competition binding
Conditions in all cases: compound 10.0 µM
[1] = tested on: ABL1 (human), P00519 [E255K]
[2] = tested on: ABL1 (human), P00519 [M351T]
[3] = tested on: EGFR (human), P00533 [746-750 del]
[4] = tested on: EGFR (human), P00533 [G719S]
[5] = tested on: EGFR (human), P00533 [L861Q]
[6] = tested on: EGFR (human), P00533 [P753S; 747-752 del]
[7] = tested on: EIF2AK4 KD2 (human), Q9P2K8 [S808G]
Sequence of EIF2AK4 KD2 (human), Q9P2K8 [S808G] (Q9P2K8 whole entry S808G, looked up): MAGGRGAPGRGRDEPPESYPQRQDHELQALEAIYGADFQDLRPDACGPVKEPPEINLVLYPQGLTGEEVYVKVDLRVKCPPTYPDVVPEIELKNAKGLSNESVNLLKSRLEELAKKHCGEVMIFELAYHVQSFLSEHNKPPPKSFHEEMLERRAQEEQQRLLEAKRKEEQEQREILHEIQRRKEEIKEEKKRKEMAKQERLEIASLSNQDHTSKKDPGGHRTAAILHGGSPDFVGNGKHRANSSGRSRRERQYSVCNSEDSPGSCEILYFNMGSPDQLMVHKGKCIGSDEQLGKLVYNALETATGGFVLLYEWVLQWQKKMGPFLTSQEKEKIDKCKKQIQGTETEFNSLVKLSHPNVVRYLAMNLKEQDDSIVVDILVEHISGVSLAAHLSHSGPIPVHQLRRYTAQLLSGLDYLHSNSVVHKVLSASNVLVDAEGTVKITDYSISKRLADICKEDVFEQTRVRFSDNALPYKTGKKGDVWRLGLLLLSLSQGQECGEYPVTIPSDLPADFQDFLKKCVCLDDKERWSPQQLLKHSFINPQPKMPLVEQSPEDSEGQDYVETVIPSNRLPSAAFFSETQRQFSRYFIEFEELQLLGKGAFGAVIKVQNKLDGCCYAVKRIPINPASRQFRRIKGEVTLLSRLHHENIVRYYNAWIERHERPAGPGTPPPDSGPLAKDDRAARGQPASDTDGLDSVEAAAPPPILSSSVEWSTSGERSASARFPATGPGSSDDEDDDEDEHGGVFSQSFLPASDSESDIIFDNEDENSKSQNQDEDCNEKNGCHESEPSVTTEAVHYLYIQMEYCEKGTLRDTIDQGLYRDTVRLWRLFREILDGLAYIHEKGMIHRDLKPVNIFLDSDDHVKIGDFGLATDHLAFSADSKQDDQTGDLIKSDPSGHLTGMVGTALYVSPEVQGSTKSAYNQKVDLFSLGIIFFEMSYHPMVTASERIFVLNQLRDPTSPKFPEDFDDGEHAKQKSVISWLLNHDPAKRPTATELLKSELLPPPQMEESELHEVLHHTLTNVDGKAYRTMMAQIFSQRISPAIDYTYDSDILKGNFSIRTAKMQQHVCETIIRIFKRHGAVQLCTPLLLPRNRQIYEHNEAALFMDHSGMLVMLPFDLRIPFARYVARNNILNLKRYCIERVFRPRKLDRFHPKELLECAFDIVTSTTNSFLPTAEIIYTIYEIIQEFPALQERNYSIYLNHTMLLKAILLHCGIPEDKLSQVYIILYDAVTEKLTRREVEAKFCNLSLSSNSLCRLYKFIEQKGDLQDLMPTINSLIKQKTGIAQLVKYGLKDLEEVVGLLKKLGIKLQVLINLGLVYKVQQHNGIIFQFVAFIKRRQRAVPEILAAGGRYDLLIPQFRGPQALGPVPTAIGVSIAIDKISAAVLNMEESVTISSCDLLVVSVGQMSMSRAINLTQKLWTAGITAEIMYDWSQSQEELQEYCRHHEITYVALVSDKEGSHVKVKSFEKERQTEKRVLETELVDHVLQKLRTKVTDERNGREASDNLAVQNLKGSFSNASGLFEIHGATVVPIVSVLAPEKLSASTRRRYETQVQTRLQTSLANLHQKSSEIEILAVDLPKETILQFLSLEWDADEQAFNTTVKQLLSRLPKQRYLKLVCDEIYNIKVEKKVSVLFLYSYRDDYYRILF

[8] = tested on: FLT3 (human), P36888 [ITD]
[9] = tested on: FLT3 (human), P36888 [K663Q]
[10] = tested on: FLT3 (human), P36888 [N841I]
[11] = tested on: KIT (human), P10721 [D816V]
Sequence of KIT (human), P10721 [D816V] (P10721 whole entry D816V, looked up): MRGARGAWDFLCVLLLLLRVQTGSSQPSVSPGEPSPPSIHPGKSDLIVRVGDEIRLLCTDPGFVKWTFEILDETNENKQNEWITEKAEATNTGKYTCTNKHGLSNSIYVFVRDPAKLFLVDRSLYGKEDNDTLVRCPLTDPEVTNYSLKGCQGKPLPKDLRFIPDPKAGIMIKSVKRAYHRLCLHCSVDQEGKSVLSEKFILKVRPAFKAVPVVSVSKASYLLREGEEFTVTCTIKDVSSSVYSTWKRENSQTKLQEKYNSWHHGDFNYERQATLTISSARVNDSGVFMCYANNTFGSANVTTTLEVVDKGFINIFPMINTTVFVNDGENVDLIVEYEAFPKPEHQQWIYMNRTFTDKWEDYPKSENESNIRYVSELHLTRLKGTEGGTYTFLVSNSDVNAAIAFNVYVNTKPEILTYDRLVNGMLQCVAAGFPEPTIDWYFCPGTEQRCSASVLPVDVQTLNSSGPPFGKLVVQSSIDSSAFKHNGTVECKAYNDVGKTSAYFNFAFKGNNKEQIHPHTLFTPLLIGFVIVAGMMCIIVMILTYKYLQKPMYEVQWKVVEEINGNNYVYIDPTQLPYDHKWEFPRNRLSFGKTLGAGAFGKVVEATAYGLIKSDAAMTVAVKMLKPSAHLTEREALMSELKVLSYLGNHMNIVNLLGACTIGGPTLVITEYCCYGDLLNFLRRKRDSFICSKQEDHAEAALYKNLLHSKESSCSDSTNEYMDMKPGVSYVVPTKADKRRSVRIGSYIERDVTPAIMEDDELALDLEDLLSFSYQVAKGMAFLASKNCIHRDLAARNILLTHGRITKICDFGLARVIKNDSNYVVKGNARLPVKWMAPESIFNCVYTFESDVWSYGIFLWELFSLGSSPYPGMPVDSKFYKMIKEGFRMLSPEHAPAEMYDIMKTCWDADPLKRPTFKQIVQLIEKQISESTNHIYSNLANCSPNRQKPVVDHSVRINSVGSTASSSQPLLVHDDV

[12] = tested on: KIT (human), P10721 [V559D/T670I]
Sequence of KIT (human), P10721 [V559D/T670I] (P10721 whole entry V559D/T670I, looked up): as the sequence (P10721 whole entry D816V, looked up) above, with V559D, T670I, V816D counted along it

[13] = tested on: KIT (human), P10721 [V559D]
Sequence of KIT (human), P10721 [V559D] (P10721 whole entry V559D, looked up): as the sequence (P10721 whole entry D816V, looked up) above, with V559D, V816D counted along it

[14] = tested on: PIK3CA (human), P42336 [C420R]
Sequence of PIK3CA (human), P42336 [C420R] (P42336 whole entry C420R, looked up): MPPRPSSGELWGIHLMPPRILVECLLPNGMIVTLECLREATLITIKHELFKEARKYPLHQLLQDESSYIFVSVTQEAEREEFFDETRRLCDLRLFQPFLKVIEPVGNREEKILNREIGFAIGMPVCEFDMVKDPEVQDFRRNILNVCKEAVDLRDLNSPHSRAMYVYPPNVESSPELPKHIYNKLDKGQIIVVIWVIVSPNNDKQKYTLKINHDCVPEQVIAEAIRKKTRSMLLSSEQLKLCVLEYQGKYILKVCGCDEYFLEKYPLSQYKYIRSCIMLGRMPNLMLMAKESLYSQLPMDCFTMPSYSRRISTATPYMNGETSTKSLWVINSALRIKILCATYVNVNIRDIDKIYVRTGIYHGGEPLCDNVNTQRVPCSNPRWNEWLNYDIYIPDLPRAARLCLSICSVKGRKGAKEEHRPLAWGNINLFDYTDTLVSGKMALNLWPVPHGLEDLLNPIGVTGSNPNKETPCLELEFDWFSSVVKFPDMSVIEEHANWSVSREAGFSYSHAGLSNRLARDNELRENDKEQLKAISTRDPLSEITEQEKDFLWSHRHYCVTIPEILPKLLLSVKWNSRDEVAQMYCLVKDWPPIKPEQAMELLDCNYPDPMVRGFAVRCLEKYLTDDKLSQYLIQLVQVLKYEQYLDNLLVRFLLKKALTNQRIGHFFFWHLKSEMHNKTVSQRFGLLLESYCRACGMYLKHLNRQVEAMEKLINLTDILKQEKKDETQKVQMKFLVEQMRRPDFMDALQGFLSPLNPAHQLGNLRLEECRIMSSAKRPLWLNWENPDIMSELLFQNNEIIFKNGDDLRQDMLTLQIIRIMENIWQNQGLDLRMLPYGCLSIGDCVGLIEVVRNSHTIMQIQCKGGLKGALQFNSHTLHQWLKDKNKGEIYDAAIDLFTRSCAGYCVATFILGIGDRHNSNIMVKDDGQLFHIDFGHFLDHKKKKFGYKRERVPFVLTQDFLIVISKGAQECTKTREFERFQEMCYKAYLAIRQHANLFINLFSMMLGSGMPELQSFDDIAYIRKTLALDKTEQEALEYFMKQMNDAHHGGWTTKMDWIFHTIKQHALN

[15] = tested on: PIK3CA (human), P42336 [E545A]
Sequence of PIK3CA (human), P42336 [E545A] (P42336 whole entry E545A, looked up): as the sequence (P42336 whole entry C420R, looked up) above, with R420C, E545A counted along it

[16] = tested on: PIK3CA (human), P42336 [E545K]
Sequence of PIK3CA (human), P42336 [E545K] (P42336 whole entry E545K, looked up): as the sequence (P42336 whole entry C420R, looked up) above, with R420C, E545K counted along it

[17] = tested on: PIK3CA (human), P42336 [H1047Y]
Sequence of PIK3CA (human), P42336 [H1047Y] (P42336 whole entry H1047Y, looked up): as the sequence (P42336 whole entry C420R, looked up) above, with R420C, H1047Y counted along it

[18] = tested on: PIK3CA (human), P42336 [I800L]
Sequence of PIK3CA (human), P42336 [I800L] (P42336 whole entry I800L, looked up): as the sequence (P42336 whole entry C420R, looked up) above, with R420C, I800L counted along it

[19] = tested on: PIK3CA (human), P42336 [Q546K]
Sequence of PIK3CA (human), P42336 [Q546K] (P42336 whole entry Q546K, looked up): as the sequence (P42336 whole entry C420R, looked up) above, with R420C, Q546K counted along it

| SMILES | kinase still bound, per cent of control [1] | kinase still bound, per cent of control [2] | kinase still bound, per cent of control [3] | kinase still bound, per cent of control [4] | kinase still bound, per cent of control [5] | kinase still bound, per cent of control [6] | kinase still bound, per cent of control [7] | kinase still bound, per cent of control [8] | kinase still bound, per cent of control [9] | kinase still bound, per cent of control [10] | kinase still bound, per cent of control [11] | kinase still bound, per cent of control [12] | kinase still bound, per cent of control [13] | kinase still bound, per cent of control [14] | kinase still bound, per cent of control [15] | kinase still bound, per cent of control [16] | kinase still bound, per cent of control [17] | kinase still bound, per cent of control [18] | kinase still bound, per cent of control [19] |
| --- | --- | --- | --- | --- | --- | --- | --- | --- | --- | --- | --- | --- | --- | --- | --- | --- | --- | --- | --- |
| CNC(=O)Nc1ccc(-c2nc(N3CC4CCC(C3)O4)c3cnn(C4CCC5(CC4)OCCO5)c3n2)cc1 | 100% | 100% | 38% | 69% | 64% | 62% | 83% | 100% | 69% | 89% | 82% | 100% | 85% | 11% | 8.8% | 11% | 9.6% | 5% | 11% |
| COc1cc2ncnc(Nc3cccc(Cl)c3)c2cc1OC | 6.6% | 1.4% | 3.3% | 0.9% | 0.1% | 1.4% | 56% | 24% | 35% | 7.2% | 38% | 49% | 16% | 60% | 98% | 71% | 95% | 46% | 82% |
| CC1=C(C(=O)Nc2cc3cn[nH]c3cc2F)C(c2ccc(C(F)(F)F)cc2)CC(=O)N1 (stereo not given) | 77% | 82% | 96% | 57% | 91% | 100% | 100% | 83% | 78% | 75% | 49% | 88% | 82% | 63% | 38% | 100% | 43% | 100% | 32% |
| COc1cc2ncnc(-n3nc(-c4ccccn4)nc3N)c2cc1OC | 0.4% | 1.2% | 50% | 57% | 64% | 68% | 1.6% | 5.6% | 21% | 0.4% | 0.15% | 47% | 3.4% | 41% | 18% | 40% | 24% | 2.8% | 38% |
| C=CC(=O)Nc1cc(-n2c(=O)ccc3cnc4ccc(-c5cn[nH]c5)cc4c32)ccc1C | 39% | 64% | 58% | 79% | 22% | 53% | 100% | 2.4% | 18% | 1.6% | 5.8% | 96% | 66% | 18% | 23% | 21% | 13% | 0.45% | 21% |
| O=c1cc(N2CCOCC2)oc2c(-c3cccc4c3sc3ccccc34)cccc12 | 100% | 100% | 69% | 100% | 100% | 90% | 100% | 93% | 86% | 100% | 58% | 100% | 80% | 19% | 8.2% | 24% | 11% | 2.2% | 16% |
| C=CC(=O)Nc1ccc(C(=O)c2sc(Nc3ccc(N4CCN(C)CC4)cc3OC)nc2N)cc1 | 81% | 82% | 77% | 52% | 51% | 81% | 83% | 73% | 64% | 37% | 67% | 59% | 69% | 83% | 93% | 93% | 88% | 83% | 100% |
| COc1ccc(N(C(=O)Oc2c(C)cccc2C)c2ccnc(Nc3ccc(N4CCN(C)CC4)cc3)n2)c(OC)c1 | 0.3% | 1.3% | 0% | 0.45% | 0.1% | 0% | 100% | 4.8% | 3.4% | 0.65% | 3.4% | 48% | 0.25% | 100% | 45% | 100% | 94% | 100% | 81% |
| CCN1CCN(C(=O)Cc2ccc(Nc3ncc(F)c(Nc4ccc(C(=O)Nc5ccccc5Cl)cc4)n3)cc2)CC1 | 6.2% | 19% | 48% | 78% | 52% | 38% | 0.4% | 0.1% | 0.4% | 0% | 0.75% | 21% | 0.5% | 57% | 25% | 97% | 62% | 88% | 23% |
| COc1cc(C(=O)N2CCC(N3CCN(C)CC3)CC2)ccc1Nc1ncc2c(n1)N(C)c1ccccc1C(=O)N2C | 80% | 94% | 72% | 86% | 100% | 84% | 95% | 100% | 97% | 73% | 72% | 81% | 100% | 89% | 98% | 100% | 71% | 38% | 91% |
